# From patent US20080076711A1, “Therapeutic agents for osteopenia” (Chugai Seiyaku Kabushiki Kaisha, priority 2001, published 2008)
# Columns and labels:
# Format in all cases: in vivo, mouse
# [1] = tested on: wild-type strain 129 female mice; assay: BFR and MAR in cancellous bone (distal end of femur) after PTH treatment, wild-type mice; settings: WT mice
# Experimental: BFR denotes bone formation rate per unit trabecular area (μm^3/μm^2/day). MAR denotes the rate of increase in the distance between labeled calcified bands (μm/day). In the case of cancellous bone, decalcified sagittal sections were prepared from the metaphyseal region and analyzed for BFR and MAR in a 1.4 mm^2 square area located 0.2 mm apart from the growth plate of the distal end of femur. Labeling was accomplished by subcutaneous administration of xylenol orange (100 mg/kg of body weight) 4 days before and calcein 2 days before sampling. Recombinant human PTH(1-34) (Bachem, Torrance, Calif.) was dissolved in acidified physiological saline supplemented with 0.1% bovine serum albumin (Sigma Chemical Co.-Aldrich, St. Louis, Mo.). The OPN-KO mice were subcutaneously administered with 80 μg/kg of body weight human PTH(1-34) for 4 weeks on a five-days-a-week basis. Mice in the control group were administered with physiological saline alone. The effect of PTH on bone metabolism was also examined in the same manner as shown in Example 1, using wild-type strain 129 female mice (7 weeks of age). These mice were divided into groups of 6 mice each.
# [2] = tested on: OPN knockout (OPN-KO) mice; assay: Analysis of urinary deoxypyridinoline (Dpyr) after PTH treatment, OPN-KO mice
# Experimental: At 26 days after treatment with PTH, a 24-hour urine sample was collected from each mouse (10 samples per group). As a marker of bone metabolism, the level of urinary deoxypyridinoline (Dpyr) was measured for each sample using an ELISA kit (Metra Biosystems, San Diego, Calif.) in accordance with the manufacturer's protocol.
# To create an animal model in which the in vivo effects of OPN were inhibited, strain 129 female mice at 7 weeks of age were modified into knockout mice deficient in the OPN gene (OPN-KO mice), as described in Rittling et al. J. Bone Miner. Res., 13: 1101-1111, 1998. These mice were singly used for PTH treatment test. They were divided into groups of 6 mice each.
# Recombinant human PTH(1-34) (Bachem, Torrance, Calif.) was dissolved in acidified physiological saline supplemented with 0.1% bovine serum albumin (Sigma Chemical Co.-Aldrich, St. Louis, Mo.). The OPN-KO mice were subcutaneously administered with 80 μg/kg of body weight human PTH(1-34) for 4 weeks on a five-days-a-week basis. Mice in the control group were administered with physiological saline alone.
# [3] = tested on: wild-type strain 129 female mice; assay: Determination of TRAP-positive cells (osteoclasts) after PTH treatment, wild-type mice; settings: WT mice, PTH(+) group, 80 μg/kg s.c., 4 weeks
# Experimental: After treatment with PTH, forefoot bone was excised from each animal. Each bone was rinsed with PBS, fixed for 7 days in 4% paraformaldehyde acid and decalcified for 3 days in 10% EDTA (pH 7.4), followed by dehydration and embedding in paraffin. Serial sections of 7 μm thickness were prepared from paraffin blocks and stained to measure TRAP (tartrate resistant acid phosphatase) activity, with Alcian blue for counter-staining. Among TRAP-positive cells attached to cancellous bone, those having at least three nuclei were counted using 15 serial sections of 7 μm thickness prepared from each bone. Each of the 15 sections was taken at five-section intervals from a total of 75 sections per bone. The number of multinucleated TRAP-positive cells in all 15 sections was summed to give the total number of osteoclasts per unit trabecular perimeter. Recombinant human PTH(1-34) (Bachem, Torrance, Calif.) was dissolved in acidified physiological saline supplemented with 0.1% bovine serum albumin (Sigma Chemical Co.-Aldrich, St. Louis, Mo.). The OPN-KO mice were subcutaneously administered with 80 μg/kg of body weight human PTH(1-34) for 4 weeks on a five-days-a-week basis. Mice in the control group were administered with physiological saline alone. The effect of PTH on bone metabolism was also examined in the same manner as shown in Example 1, using wild-type strain 129 female mice (7 weeks of age). […]
# [4] = tested on: wild-type strain 129 female mice; assay: Determination of cancellous bone mass (BV/TV) after PTH treatment, wild-type mice; settings: WT mice, PTH(+) group, 80 μg/kg s.c., 4 weeks, five days a week
# Experimental: Sagittal sections were prepared from the metaphyseal region of femur and tomographed using an X-ray microtomograph Musashi (Nittetsu-ELEX, Osaka, Japan). A Luzex-F automated Image analysis system (Nireco, Tokyo, Japan) was then used for analysis of the image data from a 1.47 mm^2 square area (0.7 mm×2.1 mm) located 0.2 mm apart from the growth plate of the distal end of femur to obtain BV/TV values. BV/TV (bone volume/total tissue volume) denotes the unit bone mass (%), i.e., the percentage of the total trabecular volume in the total tissue volume. Namely, an increase in BV/TV means an increase in calcified bone. Recombinant human PTH(1-34) (Bachem, Torrance, Calif.) was dissolved in acidified physiological saline supplemented with 0.1% bovine serum albumin (Sigma Chemical Co.-Aldrich, St. Louis, Mo.). The OPN-KO mice were subcutaneously administered with 80 μg/kg of body weight human PTH(1-34) for 4 weeks on a five-days-a-week basis. Mice in the control group were administered with physiological saline alone. The effect of PTH on bone metabolism was also examined in the same manner as shown in Example 1, using wild-type strain 129 female mice (7 weeks of age). These mice were divided into groups of 6 mice each.
# [5] = tested on: wild-type strain 129 female mice; assay: Determination of cortical bone thickness and area after PTH treatment, wild-type mice; settings: WT mice, PTH(+) group, 80 μg/kg s.c., 4 weeks
# Experimental: Horizontal sections were prepared from the femoral mid-diaphysis and tomographed using an X-ray microtomograph Musashi (Nittetsu-ELEX, Osaka, Japan). A Luzex-F automated image analysis system (Nireco, Tokyo, Japan) was then used for analysis of the image data to determine the thickness and area of cortical bone. The thickness was evaluated at the mean value averaged over 8 measurements every 45°. Recombinant human PTH(1-34) (Bachem, Torrance, Calif.) was dissolved in acidified physiological saline supplemented with 0.1% bovine serum albumin (Sigma Chemical Co.-Aldrich, St. Louis, Mo.). The OPN-KO mice were subcutaneously administered with 80 μg/kg of body weight human PTH(1-34) for 4 weeks on a five-days-a-week basis. Mice in the control group were administered with physiological saline alone. The effect of PTH on bone metabolism was also examined in the same manner as shown in Example 1, using wild-type strain 129 female mice (7 weeks of age). These mice were divided into groups of 6 mice each.
# [6] = PTH(+) group, 80 μg/kg s.c., 4 weeks
substance,measurement,setting,value
human PTH(1-34),BFR in cancellous bone,[1]; [6],1.85±0.08 μm^3/μm^2/day
same,MAR in cancellous bone,[1]; [6],4.84±0.21 μm/day
same,fold increase in cancellous BFR by PTH treatment,"[1]; PTH(+) vs PTH(−) group, p<0.05",about 1.4 fold
same,fold increase in cancellous MAR by PTH treatment,"[1]; PTH(+) vs PTH(−) group, p<0.05",~1.3 fold
same,urinary Dpyr level,"[2]; PTH(+) group, 24-hour urine at 26 days",34.67±4.52 nM/mM Cr
same,fold increase in systemic bone resorption (urinary Dpyr) by PTH treatment,"[2]; PTH(+) vs PTH(−) group, p<0.05",~1.2 fold
same,number of osteoclasts per unit trabecular perimeter of cancellous bone trabeculae,[3],9.2±1.8 cells/mm
same,cancellous bone mass BV/TV,[4],21.17±2.68%
same,area of cortical bone,[5],0.69±0.03 mm^2
same,thickness of cortical bone,[5],0.20±0.01 mm
